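96-well plates; 48 h exposure; 5 concentrations. Endpoints by linear interpolation between flanking doses. Not reached: highest tested concentration assigned. The concentration for 50% growth inhibition is given as GI50.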 Activity calls are given as the source filed them. Cut-off read from the data, not from the text of the source: active = GI50 up to about 1.1 µM and inactive = higher.
Tests used:
Experiment in all cases: inhibition of tumour cell growth, NCI panel, 48 h
[1] = tested on: MCF7
[2] = tested on: SNB-19
[3] = tested on: PC-3
[4] = tested on: LOX IMVI
[5] = tested on: SN12C
[6] = tested on: 786-0
[7] = tested on: SW-620
[8] = tested on: OVCAR-4
[9] = tested on: NCI-H226
[10] = tested on: HT-29
[11] = tested on: U-251
[12] = tested on: KM12
[13] = tested on: SK-MEL-5
[14] = tested on: SK-OV-3
[15] = tested on: HOP-62
[16] = tested on: A549
[17] = tested on: HCC 2998
[18] = tested on: BT-549
[19] = tested on: SK-MEL-2
[20] = tested on: A498

Compound | GI50 [1] | GI50 [2] | GI50 [3] | GI50 [4] | GI50 [5] | GI50 [6] | GI50 [7] | GI50 [8] | GI50 [9] | GI50 [10] | GI50 [11] | GI50 [12] | GI50 [13] | GI50 [14] | GI50 [15] | GI50 [16] | GI50 [17] | GI50 [18] | GI50 [19] | GI50 [20]
CC(/C=N/N=C1NCCCCN1)=N\N=C1NCCCCN1 | 64.9 µM (inactive) | > 100 µM (inactive) | 87.7 µM (inactive) | 16.7 µM (inactive) | > 100 µM (inactive) | > 100 µM (inactive) | > 100 µM (inactive) | > 100 µM (inactive) | > 100 µM (inactive) | 84.1 µM (inactive) | > 100 µM (inactive) | > 100 µM (inactive) | 49.2 µM (inactive) | > 100 µM (inactive) | > 100 µM (inactive) | > 100 µM (inactive) | > 100 µM (inactive) | > 100 µM (inactive) | – | –
CNC(=O)OCc1c(COC(=O)NC)c(C)n(-c2ccc(Br)cc2)c1C | 11.3 µM (inactive) | 18.7 µM (inactive) | 17.2 µM (inactive) | 6.24 µM (inactive) | 9.16 µM (inactive) | 9.82 µM (inactive) | 10.7 µM (inactive) | – | 1.24 µM (inactive) | 5.57 µM (inactive) | 10.7 µM (inactive) | 14.4 µM (inactive) | 13.6 µM (inactive) | 10.4 µM (inactive) | 13.2 µM (inactive) | 16.9 µM (inactive) | 15.2 µM (inactive) | – | 15.5 µM (inactive) | 1.36 µM (inactive)
COC(=O)c1c(O)ccc2c1c1c(n2Cc2ccccc2)C(=O)c2ccccc2C1=O | 12.1 µM (inactive) | 14.9 µM (inactive) | 13.7 µM (inactive) | 15.6 µM (inactive) | 13.9 µM (inactive) | 18.2 µM (inactive) | 19.2 µM (inactive) | 12 µM (inactive) | 18.3 µM (inactive) | 9.23 µM (inactive) | 13.9 µM (inactive) | 12.9 µM (inactive) | 16.1 µM (inactive) | 16.1 µM (inactive) | 23.6 µM (inactive) | 7.76 µM (inactive) | 5.01 µM (inactive) | 16.6 µM (inactive) | 14 µM (inactive) | –
O=C(CP(=O)(c1ccccc1)c1ccccc1)c1cccc(C(=O)CP(=O)(c2ccccc2)c2ccccc2)c1 | 98.6 µM (inactive) | 29.2 µM (inactive) | > 100 µM (inactive) | – | > 100 µM (inactive) | 37.8 µM (inactive) | > 100 µM (inactive) | > 100 µM (inactive) | 95.1 µM (inactive) | > 100 µM (inactive) | > 10 µM (inactive) | > 100 µM (inactive) | > 100 µM (inactive) | 23.3 µM (inactive) | 34.4 µM (inactive) | > 100 µM (inactive) | > 100 µM (inactive) | – | 49.9 µM (inactive) | –
COc1cc2c(cc1OCCCOc1cc3c(cc1OC)C(=O)N1CCC[C@H]1CN3)N=C[C@@H]1CCCN1C2=O | < 0.0391 µM (active) | 0.0869 µM (active) | 0.279 µM (active) | 0.0371 µM (active) | 0.189 µM (active) | 0.0656 µM (active) | 0.127 µM (active) | 0.67 µM (active) | 0.0782 µM (active) | 0.244 µM (active) | 0.0189 µM (active) | 0.0893 µM (active) | 0.126 µM (active) | 0.54 µM (active) | 0.0317 µM (active) | 0.7 µM (active) | – | 0.0802 µM (active) | 0.0977 µM (active) | –
Cc1cc(OC(=O)Nc2cccc3ccccc23)c(C(C)C)cc1C(=S)Nc1ccccc1 | 17.4 µM (inactive) | 27.2 µM (inactive) | 15.7 µM (inactive) | 14.7 µM (inactive) | – | 23.4 µM (inactive) | 16.8 µM (inactive) | 11 µM (inactive) | – | 18.7 µM (inactive) | 18.1 µM (inactive) | 16.3 µM (inactive) | 14.4 µM (inactive) | 10.4 µM (inactive) | 16.6 µM (inactive) | 21.8 µM (inactive) | 20.6 µM (inactive) | 12.1 µM (inactive) | 13.7 µM (inactive) | –
C/C(=N\NC(=S)N1CCCCC1)c1cccc(C)n1 | < 0.01 µM (active) | < 0.0143 µM (active) | < 0.01 µM (active) | < 0.01 µM (active) | 0.0108 µM (active) | < 0.01 µM (active) | < 0.01 µM (active) | 36.5 µM (inactive) | < 0.01 µM (active) | < 0.01 µM (active) | < 0.01 µM (active) | < 0.0221 µM (active) | < 0.0335 µM (active) | < 0.0146 µM (active) | < 0.01 µM (active) | 0.0325 µM (active) | 0.082 µM (active) | – | 0.515 µM (active) | 0.0199 µM (active)
O=C1NC(N2CCOCC2)=N/C1=C\c1cccs1 | > 100 µM (inactive) | > 100 µM (inactive) | > 100 µM (inactive) | > 100 µM (inactive) | > 100 µM (inactive) | > 100 µM (inactive) | > 100 µM (inactive) | > 100 µM (inactive) | > 100 µM (inactive) | > 100 µM (inactive) | > 100 µM (inactive) | 36.2 µM (inactive) | > 100 µM (inactive) | > 100 µM (inactive) | > 100 µM (inactive) | > 100 µM (inactive) | 4.65 µM (inactive) | > 100 µM (inactive) | > 100 µM (inactive) | –
CC/N=C(/C#N)NCC | – | > 100 µM (inactive) | – | > 100 µM (inactive) | > 100 µM (inactive) | 63 µM (inactive) | 18.7 µM (inactive) | > 100 µM (inactive) | > 100 µM (inactive) | 40.2 µM (inactive) | 96.4 µM (inactive) | > 100 µM (inactive) | > 100 µM (inactive) | > 100 µM (inactive) | > 100 µM (inactive) | > 100 µM (inactive) | > 100 µM (inactive) | – | > 100 µM (inactive) | > 100 µM (inactive)
O=C(/C(=C\C(=O)c1cccs1)c1ccsc1)c1ccc(Br)cc1 | > 100 µM (inactive) | > 100 µM (inactive) | > 100 µM (inactive) | – | > 100 µM (inactive) | > 100 µM (inactive) | > 100 µM (inactive) | > 10 µM (inactive) | > 100 µM (inactive) | 80 µM (inactive) | > 100 µM (inactive) | > 100 µM (inactive) | > 100 µM (inactive) | > 100 µM (inactive) | > 100 µM (inactive) | > 100 µM (inactive) | > 100 µM (inactive) | – | > 100 µM (inactive) | > 100 µM (inactive)
CCCC[S+]([O-])CCC(N)P(=O)(O)O (centres undefined) | > 100 µM (inactive) | > 100 µM (inactive) | > 100 µM (inactive) | > 100 µM (inactive) | > 100 µM (inactive) | > 100 µM (inactive) | > 100 µM (inactive) | > 100 µM (inactive) | > 100 µM (inactive) | > 100 µM (inactive) | > 100 µM (inactive) | > 100 µM (inactive) | > 100 µM (inactive) | > 100 µM (inactive) | > 100 µM (inactive) | > 100 µM (inactive) | – | > 100 µM (inactive) | > 100 µM (inactive) | –
COC(=O)C1=C(OC)C(=P2(c3ccccc3)CC(c3ccccc3)=C2c2ccccc2)C(C(=O)OC)=C1C(=O)OC (centres undefined) | 7.55 µM (inactive) | 67.1 µM (inactive) | 10.8 µM (inactive) | 25.1 µM (inactive) | 31.8 µM (inactive) | 27.4 µM (inactive) | 14.6 µM (inactive) | 19.5 µM (inactive) | 68.9 µM (inactive) | – | 19.9 µM (inactive) | 27.5 µM (inactive) | 15.7 µM (inactive) | > 61.5 µM (inactive) | > 100 µM (inactive) | 26.4 µM (inactive) | > 100 µM (inactive) | > 76.6 µM (inactive) | 54.5 µM (inactive) | –
C=CC1CN(C(=O)OCC)N(C(=O)OCC)C1CCc1ccccc1 (centres undefined) | 42.2 µM (inactive) | > 100 µM (inactive) | 79.1 µM (inactive) | > 100 µM (inactive) | > 100 µM (inactive) | > 100 µM (inactive) | – | 57.4 µM (inactive) | > 100 µM (inactive) | > 100 µM (inactive) | > 100 µM (inactive) | 71.6 µM (inactive) | 64.1 µM (inactive) | > 100 µM (inactive) | > 100 µM (inactive) | 57.8 µM (inactive) | > 100 µM (inactive) | – | > 100 µM (inactive) | –
COc1ccc(N2C(=O)C3c4[nH]c5ccc(OC)cc5c4C4CCC(C(C)(C)C)CC4C3C2=O)cc1 (centres undefined) | – | 46.3 µM (inactive) | – | 34.2 µM (inactive) | 38.2 µM (inactive) | 16.8 µM (inactive) | 93.5 µM (inactive) | 4.71 µM (inactive) | 30.5 µM (inactive) | 32.5 µM (inactive) | 17.5 µM (inactive) | 34.3 µM (inactive) | 21.1 µM (inactive) | 15.2 µM (inactive) | 16 µM (inactive) | 26.7 µM (inactive) | 45.3 µM (inactive) | – | 17.5 µM (inactive) | 19.6 µM (inactive)
CC1=C(C(=O)NNC(=O)Cc2ccccc2)CC(C(=O)NNC(=O)Cc2ccccc2)=C(C)N1 | > 100 µM (inactive) | > 100 µM (inactive) | – | 80 µM (inactive) | > 100 µM (inactive) | > 100 µM (inactive) | > 100 µM (inactive) | > 100 µM (inactive) | > 100 µM (inactive) | > 100 µM (inactive) | > 100 µM (inactive) | > 100 µM (inactive) | > 100 µM (inactive) | > 100 µM (inactive) | > 100 µM (inactive) | > 100 µM (inactive) | > 100 µM (inactive) | > 100 µM (inactive) | > 100 µM (inactive) | > 100 µM (inactive)

Source: ChEMBL document CHEMBL1201862, “PubChem BioAssay data set” (2004)
